Reference: patent US9085587B2, “Inhibitors of hepatitis C virus” (priority 2010, dated 2015)
Like-named read-outs stand apart in the source and are kept apart here.

Legend:
HCV NS5B S365A mutant = target: T1, HCV NS5B S365A mutant (Hepatitis C virus genotype 1b, UniProt Q9WMX2, S2784A); assay: Activity against HCV NS5B S365A mutant; type: cell-based; details: read-out: Inhibiton of HCV NS5B S365A mutant
T1 construct: HCV NS5B C316Y or S365A mutant as indicated; expressed in transfected cells
Method: The biological activity against HCV 1b, 1a, or 2a is indicated as being *, **, ***, or ****, which corresponds to EC50 ranges of EC50>1000 nM, 100 nM<EC50≦1000 nM, 10 nM<EC50≦100 nM, or EC50≦10 nM, respectively. The biological activity against HCV NS5B C316Y or S365A mutant is indicated as being †, ††, or \\\, which corresponds to EC50 ranges of EC50>1000 nM, 200 nM<EC50≦1000 nM, […], respectively.

[1] = test system: HCV 1b replication (bicistronic genotype 1b replicon in Huh 7 cells); assay: HCV 1b replicon assay (1b_Huh-Luc/Neo-ET cell line, luciferase readout); type: cell-based; details: Hepatitis C virus, Huh-7
Method: Biological activity of the compounds of the invention was determined using an HCV replicon assay. The 1b_Huh-Luc/Neo-ET cell line persistently expressing a bicistronic genotype 1b replicon in Huh 7 cells was obtained from ReBLikon GMBH. This cell line was used to test compound inhibition using luciferase enzyme activity readout as a measurement of compound inhibition of replicon levels.
On Day 1 (the day after plating), each compound was added in triplicate to the cells. Plates were incubated for 72 hours prior to running the luciferase assay. Enzyme activity was measured using a Bright-Glo Kit (cat. number E2620) manufactured by Promega Corporation. The following equation was used to generate a percent control value for each compound. % Control=(Average Compound Value/Average Control)*100
The EC50 value was determined using GraphPad Prism and the following equation: Y=Bottom+(Top-Bottom)/(1+10^((Log IC50−X)*HillSlope))
EC50 values of compounds were repeated several times in the replicon assay.

[2] = 1b_Huh-Luc/Neo-ET cell line, 72 hours, luciferase readout, read-out: EC50, concentration effective to produce a half-maximal inhibition of HCV 1b replication
[3] = class symbols, genotype 1b replicon, read-out: Inhibition of HCV genotype 1b replicon
[4] = numeric EC50, genotype 1b replicon, read-out: Inhibition of HCV genotype 1b replicon (EC50)

T1 sequence (Q9WMX2 2420-3010 S2784A): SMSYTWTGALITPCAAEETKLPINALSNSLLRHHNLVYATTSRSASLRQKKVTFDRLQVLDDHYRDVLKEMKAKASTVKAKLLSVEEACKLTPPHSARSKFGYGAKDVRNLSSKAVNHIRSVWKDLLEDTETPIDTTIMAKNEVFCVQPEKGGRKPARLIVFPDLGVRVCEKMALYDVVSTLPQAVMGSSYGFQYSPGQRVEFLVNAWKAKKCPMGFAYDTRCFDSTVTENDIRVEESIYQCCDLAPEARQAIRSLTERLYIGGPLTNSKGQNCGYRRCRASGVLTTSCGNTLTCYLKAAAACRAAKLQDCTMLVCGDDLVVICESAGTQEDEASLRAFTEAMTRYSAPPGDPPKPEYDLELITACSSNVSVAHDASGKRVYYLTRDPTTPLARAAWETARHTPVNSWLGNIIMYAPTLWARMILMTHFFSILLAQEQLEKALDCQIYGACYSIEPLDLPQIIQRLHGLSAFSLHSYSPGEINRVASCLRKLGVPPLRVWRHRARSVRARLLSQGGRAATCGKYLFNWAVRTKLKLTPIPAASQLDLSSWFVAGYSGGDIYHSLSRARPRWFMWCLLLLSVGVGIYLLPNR

SMILES | EC50 (HCV NS5B S365A mutant) [nM] | EC50 [1, 2] [nM] | EC50 [1, 3] [nM] | EC50 [1, 4] [nM]
CC1OCCN(S(C)(=O)=O)c2cc3oc(-c4ccc(F)cc4)c(-c4ncc[nH]4)c3cc21 (centres unmarked) [Compound B197] | 200 to 1000 | – | – | –
CNC(=O)c1c(-c2ccccc2F)oc2cc3c(cc12)C(C)CCCN3S(C)(=O)=O (centres unmarked) [Compound B33] | – | ≤ 10 | < 10 | –
CC[C@H](C)[C@H](N)C(=O)OC[C@@H]1CN(S(C)(=O)=O)c2cc3oc(-c4ccc(F)cc4)c(C(=O)NC)c3cc2[C@H](C)O1 [Compound B269] | – | ≤ 10 | < 10 | –
CNC(=O)c1c(-c2ccc(F)cc2)oc2cc3c(cc12)[C@H](C)O[C@@H](CS(C)(=O)=O)CN3S(C)(=O)=O [Compound B287] | – | 10 to 100 | 10 to 100 | –
CNC(=O)c1c(-c2ccc(F)cc2)oc2cc3c(cc12)[C@H](C)O[C@H](COC(=O)CCC(=O)O)CN3S(C)(=O)=O [Compound B262] | – | 10 to 100 | 10 to 100 | –
CNC(=O)c1c(-c2ccc(F)cc2)oc2cc3c(cc12)[C@H](C)O[C@H](COC(=O)[C@@H](N)Cc1ccccc1)CN3S(C)(=O)=O [Compound B278] | – | ≤ 10 | < 10 | –
CNC(=O)c1c(-c2ccc(F)cc2)oc2cc3c(cc12)[C@H](C)O[C@H](COC[C@H](O)CO)CN3S(C)(=O)=O [Compound B279] | – | 10 to 100 | 10 to 100 | –
CNC(=O)c1c(-c2ccc(F)cc2)oc2cc3c(cc12)[C@H](C)O[C@H](COC(=O)[C@H](N)C(C)C)CN3S(C)(=O)=O [Compound B282] | – | ≤ 10 | < 10 | –
CONC(=O)c1c(-c2ccc(F)cc2)oc2cc3c(cc12)CCCCN3S(C)(=O)=O [Compound B18] | – | 10 to 100 | 10 to 100 | –
CNC(=O)c1c(-c2ccc(F)cc2)oc2cc3c(cc12)[C@H](C)O[C@H](COC(=O)[C@H](C)N)CN3S(C)(=O)=O [Compound B249] | – | ≤ 10 | < 10 | –
CNC(=O)c1c(-c2ccc(F)cc2)oc2cc3c(cc12)[C@H](C)O[C@H](COC(=O)[C@@H](N)C(C)C)CN3S(C)(=O)=O [Compound B248] | – | ≤ 10 | < 10 | –
CNC(=O)c1c(-c2ccc(F)cc2)oc2cc3c(cc12)[C@H](C)O[C@H](COC(=O)COCCOCCOCCOC)CN3S(C)(=O)=O [Compound B258] | – | ≤ 10 | < 10 | –
CNC(=O)c1c(-c2ccc(F)cc2)oc2cc3c(cc12)[C@H](C)O[C@H](COC(=O)COCCOCCOC)CN3S(C)(=O)=O [Compound B256] | – | ≤ 10 | < 10 | –
CNC(=O)c1c(-c2ccc(F)cc2)oc2cc3c(cc12)[C@H](C)O[C@H](COC[C@H]1COC(C)(C)O1)CN3S(C)(=O)=O [Compound B275] | – | ≤ 10 | < 10 | –
CNC(=O)c1c(-c2ccc(F)cc2)oc2cc3c(cc12)C(=O)CCCN3S(C)(=O)=O [Compound B7] | – | 10 to 100 | 10 to 100 | –
CNC(=O)c1c(-c2ccc(F)cc2)oc2cc3c(cc12)[C@H](C)O[C@H](COC(=O)C(C)(C)C)CN3S(C)(=O)=O [Compound B261] | – | ≤ 10 | < 10 | –
CNC(=O)c1c(-c2ccc(F)cc2)nn2cc3c(cc12)C(C)OC(CS(C)(=O)=O)CN3S(C)(=O)=O (centres unmarked) [Compound B247] | – | ≤ 10 | 10 to 100 | –
CNC(=O)c1c(-c2ccc(Oc3ccc(F)cc3)cc2)nn2cc3c(cc12)C(C)OC(CS(C)(=O)=O)CN3S(C)(=O)=O (centres unmarked) [Compound B251] | – | – | 10 to 100 | –
CNC(=O)c1c(-c2ccc(F)cc2)oc2cc3c(cc12)[C@H](C)O[C@H](COC(=O)[C@@H](N)Cc1cnc[nH]1)CN3S(C)(=O)=O [Compound B277] | – | ≤ 10 | < 10 | –
CNC(=O)c1c(-c2ccc(F)cc2)oc2cc3c(cc12)[C@H](C)O[C@H](COC(=O)CC1CCNCC1)CN3S(C)(=O)=O [Compound B264] | – | 10 to 100 | 10 to 100 | –
CNC(=O)c1c(-c2ccc(F)cc2)oc2cc3c(cc12)[C@H](C)O[C@H](COC)CN3S(C)(=O)=O [Compound B260] | – | ≤ 10 | < 10 | –

SMILES | EC50 (HCV NS5B S365A mutant) [nM] | EC50 [1, 2] [nM] | EC50 [1, 3] [nM] | EC50 [1, 4] [nM]
CNC(=O)c1c(-c2ccc(Oc3ccc(F)cc3)cc2)oc2cc3c(cc12)[C@H](C)O[C@H](COC(=O)CN)CN3S(C)(=O)=O [Compound B254] | – | ≤ 10 | < 10 | –
CNC(=O)c1c(-c2ccc(F)cc2)oc2cc3c(cc12)[C@H](C)O[C@H](CO[C@@H]1CCOC1)CN3S(C)(=O)=O [Compound B286] | – | ≤ 10 | < 10 | –
CNC(=O)c1c(-c2ccccc2F)oc2cc3c(cc12)C(C)=CCCN3S(C)(=O)=O [Compound B32] | – | 10 to 100 | 10 to 100 | –
CNC(=O)c1c(-c2ccc(F)cc2)oc2cc3c(cc12)CCN3S(C)(=O)=O [Compound B21] | – | – | 100 to 1000 | –
CN/C(=N\O)c1c(-c2ccc(F)cc2)oc2cc3c(cc12)[C@H](C)O[C@H](CS(C)(=O)=O)CN3S(C)(=O)=O [Compound B283] | – | – | 100 to 1000 | –
CNC(=O)c1c(-c2ccc(Oc3ccc(F)cc3)cc2)oc2cc3c(cc12)[C@H](C)O[C@H](COC(=O)C(C)(C)C)CN3S(C)(=O)=O [Compound B244] | – | ≤ 10 | < 10 | –
CNC(=O)c1c(-c2ccc(F)cc2)oc2cc3c(cc12)C(O)CCCN3S(C)(=O)=O (centres unmarked) [Compound B8] | – | – | – | 106
CNC(=O)c1c(-c2ccc(F)cc2)oc2cc3c(cc12)[C@H](C)O[C@H](COC(=O)N1CCC(N2CCCCC2)CC1)CN3S(C)(=O)=O [Compound B276] | – | ≤ 10 | < 10 | –
C=C1CCCN(S(C)(=O)=O)c2cc3oc(-c4ccc(F)cc4)c(C(=O)NC)c3cc21 [Compound B4] | – | 10 to 100 | 10 to 100 | –
CNC(=O)c1c(-c2ccc(F)cc2F)oc2cc3c(cc12)C(CO)CCCN3S(C)(=O)=O (centres unmarked) [Compound B36] | – | 10 to 100 | 10 to 100 | –
CNC(=O)c1c(-c2ccc(F)cc2)oc2cc3c(cc12)[C@H](C)O[C@H](COC(=O)COCCOCCOCCOCCOC)CN3S(C)(=O)=O [Compound B259] | – | ≤ 10 | < 10 | –
CNC(=O)c1c(-c2ccc(Oc3ccc(F)cc3)cc2)nn2cc3c(cc12)C(C)OC(CO)CN3S(C)(=O)=O (centres unmarked) [Compound B250] | – | – | 10 to 100 | –
C=C1CCCN(S(C)(=O)=O)c2cc3oc(-c4ccc(F)cc4F)c(C(=O)NC)c3cc21 [Compound B29] | – | 10 to 100 | – | 56.1
CNC(=O)c1c(-c2ccc(F)cc2)oc2cc3c(cc12)[C@H](C)O[C@@H](CO)CN3S(C)(=O)=O [Compound B274] | – | – | 10 to 100 | –
CNC(=O)c1c(-c2ccc(F)cc2)oc2cc3c(cc12)[C@H](C)O[C@H](COC(=O)[C@@H](N)CO)CN3S(C)(=O)=O [Compound B281] | – | ≤ 10 | < 10 | –
CNC(=O)c1c(-c2ccc(F)cc2)oc2cc3c(cc12)[C@H](C)O[C@H](COC(=O)[C@@H](N)[C@@H](C)OC)CN3S(C)(=O)=O [Compound B270] | – | ≤ 10 | < 10 | –
CNC(=O)c1c(-c2ccc(Oc3ccc(F)cc3)cc2)oc2cc3c(cc12)[C@H](C)O[C@H](COC)CN3S(C)(=O)=O [Compound B243] | – | ≤ 10 | < 10 | –
CNC(=O)c1c(-c2ccc(F)cc2)oc2cc3c(cc12)[C@H](C)O[C@H](COC(=O)[C@@H](C)N)CN3S(C)(=O)=O [Compound B273] | – | ≤ 10 | < 10 | –
CNC(=O)c1c(-c2ccc(F)cc2)oc2cc3c(cc12)C1(CCCN3S(C)(=O)=O)CC1 [Compound B9] | – | 10 to 100 | 10 to 100 | –
CNC(=O)c1c(-c2ccc(F)cc2)oc2cc3c(cc12)[C@H](C)O[C@H](COC(=O)[C@@H](N)[C@@H](C)O)CN3S(C)(=O)=O [Compound B280] | – | ≤ 10 | < 10 | –
CNC(=O)c1c(-c2ccc(F)cc2)oc2cc3c(cc12)[C@@H](C)CCCN3S(C)(=O)=O [Compound B16] | – | 10 to 100 | – | 45.7
